# According to patent US5223526A, “Pyrazole carboxanilide fungicides and use” (Monsanto Company, priority 1992, dated 1993):
# What was measured:
# Botrytis cinerea [1] = experiment: Vine grey mold (grape berries); type: in vivo; conditions: average of six berries, 7-10 days; for pest or weed control at 50 ppm: grape berries treated with 50 ppm, read-out: % DISEASE CONTROL 50 ppm; for pest or weed control at 200 ppm: grape berries treated with 200 ppm, read-out: % DISEASE CONTROL 200 ppm
# In short: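 Preventive berry test: compound at 50 or 200 ppm (acetone/water, 0.05% Tween 20) applied one day before inoculation with 10^6 spores/mL Botrytis conidia. After 7-10 days at 20 °C under 12 h light, infected surface area rated; disease control expressed as percent reduction from control mean; repeated-test values averaged.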
# Rhizoctonia solani = experiment: Rice sheath blight; type: in vivo; design: scale not given here; conditions: inoculated two days later, rated after 7 days, average of five plants; for Disease Control Rating at 0.02 mg/mL: foliage and soil sprayed with 0.02 mg/mL; for Disease Control Rating at 0.1 mg/mL: foliage and soil sprayed with 0.1 mg/mL; for Disease Control Rating at 0.5 mg/mL: foliage and soil sprayed with 0.5 mg/mL
# In short: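 Preventive test: R. solani inoculum on rice grain was applied at the plant base two days after spraying foliage and soil with Compound A (0.5, 0.1 or 0.02 mg/mL, water/acetone/Tween 20). Plants aged 11–15 days stood in flood trays; after 7 days at 25 °C and high humidity, disease control was rated against untreated plants, five plants averaged.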
# succinate dehydrogenase = target: T1, succinate dehydrogenase (Botrytis cinerea, UniProt A0A384J5E4+A0A384J8V8+A0A384JHJ5); experiment: Enzyme inhibition: succinate dehydrogenase activity in Botrytis cinerea mitochondria (DCPIP reduction); type: biochemical; conditions: concentration required to inhibit the rate of DCPIP reduction by 50%; Botrytis cinerea isolate Nick mitochondria; read-out: I50 (μM conc.)
# T1 construct: succinate-DCPIP reductase assay with KCN
# T1 sequence (A0A384J5E4 1-300): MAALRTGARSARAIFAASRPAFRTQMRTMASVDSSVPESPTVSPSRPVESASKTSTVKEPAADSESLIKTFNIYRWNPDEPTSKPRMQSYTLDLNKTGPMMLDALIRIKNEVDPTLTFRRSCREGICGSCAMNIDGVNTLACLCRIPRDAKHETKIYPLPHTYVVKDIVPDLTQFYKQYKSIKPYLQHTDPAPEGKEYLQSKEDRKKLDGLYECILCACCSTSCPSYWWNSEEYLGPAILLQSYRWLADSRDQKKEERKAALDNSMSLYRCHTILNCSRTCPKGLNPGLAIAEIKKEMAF
# T1 sequence (A0A384J8V8 1-189): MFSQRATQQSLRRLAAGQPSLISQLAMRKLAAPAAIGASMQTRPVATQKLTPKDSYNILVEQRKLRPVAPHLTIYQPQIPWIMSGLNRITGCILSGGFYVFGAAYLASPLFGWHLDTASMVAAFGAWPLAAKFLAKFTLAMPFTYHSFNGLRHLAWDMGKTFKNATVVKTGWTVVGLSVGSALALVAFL
# T1 sequence (A0A384JHJ5 1-192): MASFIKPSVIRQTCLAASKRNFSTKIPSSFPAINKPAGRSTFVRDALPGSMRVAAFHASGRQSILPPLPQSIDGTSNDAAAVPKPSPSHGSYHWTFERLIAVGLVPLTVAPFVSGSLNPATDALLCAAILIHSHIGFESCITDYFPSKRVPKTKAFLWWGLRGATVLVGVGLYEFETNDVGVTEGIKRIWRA
# T1 sequence (A0A384K456 1-647 partner): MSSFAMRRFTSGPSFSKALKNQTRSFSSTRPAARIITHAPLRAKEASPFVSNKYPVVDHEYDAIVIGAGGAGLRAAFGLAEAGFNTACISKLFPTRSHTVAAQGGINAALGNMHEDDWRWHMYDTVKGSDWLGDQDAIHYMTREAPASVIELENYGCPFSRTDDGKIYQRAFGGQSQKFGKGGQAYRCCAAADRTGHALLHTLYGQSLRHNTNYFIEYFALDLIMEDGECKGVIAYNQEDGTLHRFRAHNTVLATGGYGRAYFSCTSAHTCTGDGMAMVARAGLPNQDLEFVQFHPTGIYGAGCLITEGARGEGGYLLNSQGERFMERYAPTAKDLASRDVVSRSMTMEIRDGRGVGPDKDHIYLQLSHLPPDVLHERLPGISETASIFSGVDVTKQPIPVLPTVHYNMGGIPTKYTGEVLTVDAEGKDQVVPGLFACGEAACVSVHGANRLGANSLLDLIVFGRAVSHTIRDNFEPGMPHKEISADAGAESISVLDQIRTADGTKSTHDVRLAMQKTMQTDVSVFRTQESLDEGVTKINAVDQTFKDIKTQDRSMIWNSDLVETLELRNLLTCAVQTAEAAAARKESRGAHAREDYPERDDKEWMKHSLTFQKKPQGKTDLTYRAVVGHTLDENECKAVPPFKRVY
# In short: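 DCPIP (45 μM) reduction at 600 nm tracked with 17 mM succinate, 1 mM KCN and 50 mM potassium phosphate, pH 7.2. Compounds were added in acetone (final 1% v/v), and Botrytis cinerea isolate Nick mitochondrial fraction initiated the reaction. Rates minus endogenous activity gave percentage inhibition, plotted semilog against concentration to derive I50 (μM).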
# Botrytis cinerea [2] = experiment: Eggplant grey mold; type: in vivo; design: scale not given here; conditions: inoculated 24 h later, rated after 3-4 days; for Disease Control Rating at 500 ppm: eggplant sprayed with 500 ppm; for Disease Control Rating at 20 ppm: eggplant sprayed with 20 ppm; for Disease Control Rating at 100 ppm: eggplant sprayed with 100 ppm
# In short: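 Protective test: compound formulations (2:3 acetone:water, 0.5% Tween 20; 500, 100 or 20 ppm) sprayed on 14-18-day-old plants, with spore inoculum (4×10^6 spore/mL) applied a day later. Disease control rated on Botrytis lesions after 3-4 days at 23 °C and 100% humidity.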
SMILES,pest or weed control at 50 ppm (Botrytis cinerea [1]) [%],pest or weed control at 200 ppm (Botrytis cinerea [1]) [%],Disease Control Rating at 0.02 mg/mL (Rhizoctonia solani),Disease Control Rating at 0.1 mg/mL (Rhizoctonia solani),Disease Control Rating at 0.5 mg/mL (Rhizoctonia solani),IC50 (succinate dehydrogenase) [µM],Disease Control Rating at 500 ppm (Botrytis cinerea [2]),Disease Control Rating at 20 ppm (Botrytis cinerea [2]),Disease Control Rating at 100 ppm (Botrytis cinerea [2])
"Cn1cc(C(=O)Nc2ccccc2C2=CCC(C(C)(C)C)CC2)c(C(F)F)n1 (centres unmarked) [Example 132, 1H-pyrazole-4-carboxamide, 3-(difluoromethyl)-N-[2-[4-(1,1-dimethylethyl)-1-cyclohexen-1-yl]phenyl]-1-methyl-]",50,51,1,2,3,0.0035,0,–,–
"Cc1cccc(NC(=O)c2cn(C)nc2C(F)(F)F)c1C1CCCCC1 [Example 19, 1H-pyrazole-4-carboxamide, N-(2-cyclohexyl-3-methylphenyl)-1-methyl-3-(trifluoromethyl)-]",32,52,1,3,3,0.028,3,1,2
"Cn1cc(C(=O)Nc2ccccc2C2CCCCCC2)c(C(F)(F)F)n1 [Example 10, 1H-pyrazole-4-carboxamide, N-(2-cycloheptylphenyl)-1-methyl-3-(trifluoromethyl)-]",87,85,2,3,3,0.003,2,2,2
"CC(c1ccccc1NC(=O)c1cn(C)nc1C(F)(F)F)C1CCCC1 (centres unmarked) [Example 53, 1H-pyrazole-4-carboxamide, N-[2-(1-cyclopentylethyl)phenyl]-1-methyl-3-(trifluoromethyl)-]",40,70,2,3,3,0.021,0,–,–
"Cn1cc(C(=O)Nc2ccc(F)cc2C2(C)CCCCC2)c(C(F)F)n1 [Example 95, 1H-pyrazole-4-carboxamide, 3-(difluoromethyl)-N-[4-fluoro-2-(1-methylcyclohexyl)phenyl]-1-methyl-]",48,26,–,–,0,0.64,0,–,–
"Cn1cc(C(=O)Nc2ccccc2CC2=CCCC2)c(C(F)F)n1 [Example 117, 1H-pyrazole-4-carboxamide, N-[2-(1-cyclopenten-1-ylmethyl)phenyl]-3-(difluoromethyl)-1-methyl-]",80,19,–,–,0,0.17,2,0,1
"Cn1cc(C(=O)Nc2ccccc2CC2CCCCC2)c(C(F)(F)F)n1 [Example 130, 1H-pyrazole-4-carboxamide, N-[2-(cyclohexylmethyl)phenyl]-1-methyl-3-(trifluoromethyl)-]",2,21,–,–,2,0.37,0,0,0
"Cn1cc(C(=S)Nc2ccccc2[C@@H]2C[C@H]3CC[C@@H]2C3)c(C(F)F)n1 (relative stereo) [Example 102, 1H-pyrazole-4-carbothioamide, N-(2-bicyclo[2.2.1]hept-2-ylphenyl)-3-(difluoromethyl)-1-methyl-, exo-]",88,83,3,3,3,16,1,–,–
"Cn1cc(C(=O)Nc2ccccc2[C@@H]2C[C@H]3CC[C@@H]2C3)c(C(F)(F)Cl)n1 (relative stereo) [Example 91, 1H-pyrazole-4-carboxamide, N-[2-bicyclo[2.2.1]hept-2-ylphenyl]-3-(chlorodifluoromethyl)-1-methyl-, exo-]",0,14,–,–,0,0.078,0,–,–
"Cc1ccccc1NC(=O)c1c(C)nn(C)c1C [Compound H, N-(2-methylphenyl)-1,3,5-(trimethyl)-4-pyrazolecarboxamide, reference compound]",5,9,–,–,0,475,0,–,–
"Cn1cc(C(=O)Nc2ccccc2OCCCC2CCCC2)c(C(F)F)n1 [Example 48, 1H-pyrazole-4-carboxamide, N-[2-(3-cyclopentylpropoxy)phenyl]-3-(difluoromethyl)-1-methyl-]",10,0,–,–,2,0.02,0,–,–
"Cn1nc(C(F)(F)F)c(C(=O)Nc2ccccc2C2CCCCCC2)c1F [Example 86, 1H-pyrazole-4-carboxamide, N-(2-cycloheptylphenyl)-5-fluoro-1-methyl-3-(trifluoromethyl)-]",66,82,3,3,3,0.0063,0,–,–
"Cn1cc(C(=O)Nc2ccccc2C2=CCCC2(C)C)c(C(F)F)n1 [Example 122, 1H-pyrazole-4-carboxamide, 3-(difluoromethyl)-N-[2-(5,5-dimethyl-1-cyclopenten-1-yl)phenyl]-1-methyl-]",67,79,–,–,0,0.034,2,1,2
"Cn1cc(C(=O)Nc2ccccc2O[C@H]2CC[C@@H](C)CC2)c(C(F)(F)F)n1 [Example 72, 1H-pyrazole-4-carboxamide, 1-methyl-N-[2-[(4-methylcyclohexyl)oxy]phenyl]-3-(trifluoromethyl)-, cis-]",0,0,–,–,0,0.031,0,–,–
"O=C(Nc1ccccc1C1CCCCC1)c1c[nH]nc1C(F)F [Example 15, 1H-pyrazole-4-carboxamide, N-(2-cyclohexylphenyl)-3-(difluoromethyl)-]",36,89,–,–,0,0.014,2,2,3
"Cn1cc(C(=O)Nc2ccccc2C2=CCOCC2)c(C(F)F)n1 [Example 104, 1H-pyrazole-4-carboxamide, 3-(difluoromethyl)-N-[2-(5,6-dihydro-2H-pyran-4-yl)phenyl]-1-methyl-]",0,48,–,–,0,0.77,0,–,–
